Test results from article PMC9367672, “In vitro differences in toddalolactone metabolism in various species and its effect on cytochrome P450 expression” (Pharmaceutical Biology, 2022).

Tests used:
HLMs = assay: Prediction of in vivo hepatic clearance in humans from HLM kinetics; format: in vitro ADME, human
Description: The in vivo hepatic clearances in oxidative metabolism and glucuronidation of toddalolactone were calculated using Equations (4)–(6) (Li et al. [2008]): (4) CLint in vitro=∑i=1nVmax(Mi)/Km(Mi) (5) CLint in vivo=CLint in vitro⋅SF (6) CLH=QH⋅fu⋅CLint in vivo/QH+fu⋅CLint in vivo where SF is the milligrams of microsomal protein per gram of liver multiplied by the grams of liver weight; CLH is hepatic clearance; fu is the unbound fraction in the blood (the value of fu was set to 1 due to the absence of available data for toddalolactone); QH is the blood flow in the liver; and Mi is the metabolite of toddalolacone. The physiological parameters to calculate intrinsic clearance were as follows. The liver weight of dogs, rats and humans were 32, 40 and 25.7 g/kg body weight, respectively; the content of microsomal protein was 77.9, 44.8 and 48.8 mg/g of liver; and the blood flow in the liver was 30.9, 55.2 and 20.7 mL/(min ⋅ kg), respectively (Naritomi et al. [2001]).

MIMs = assay: Enzyme kinetics of toddalolactone metabolism in mouse liver microsomes (oxidative metabolism); format: in vitro ADME; conditions: MOMs (mouse liver microsomes), P450-catalyzed oxidation, P2 formation
Description: (§1) The CYP reaction system (200 μL) consisted of 0.1 M potassium phosphate buffer (pH 7.4), an NADPH-generating system (1 mM NADPH, 10 mM G-6-P, 1 unit/mL G-6-PD, 4 mM MgCl2), and liver microsomes or recombinant human microsomes (supersomes). Each of the in vitro enzymatic assays using liver microsomes was linear with respect to incubation time and amount of protein. After a pre-incubation at 37 °C for 3 min, the reactions were initiated by adding NADP^+. After incubating for 60 min, the reactions were quenched by adding 200 μL of ice-cold acetonitrile. Samples were centrifuged at 18,000 g for 15 min at 4 °C and 10 μL of supernatant was analyzed using an HPLC system. NADPH or CYP enzyme sources were not used in the control group to ensure that the metabolic reactions were CYP- and NADPH-dependent. All incubation assays were completed in triplicate. The data are presented as mean ± standard deviation (SD).
(§2) The enzyme kinetics of toddalolactone in oxidative metabolism and glucuronidation were determined by incubating liver microsomes (0.2 mg/mL) or CYPs (15 nM) with different concentrations of toddalolactone (1–200 μM). […] The in vitro intrinsic clearance (CLint) was calculated based on the Vmax/Km ratio. Metabolites were quantified using the standard curve for toddalolactone because of the absence of metabolite standards. […]
(§3) The enzyme kinetics in oxidative metabolism and glucuronidation of toddalolactone were studied, and preliminary experiments were performed to ensure that metabolites were formed in the linear range of both reaction time and microsomal protein concentration. […] Based on the results of toddalolactone metabolism in different species, the kinetic parameter values in RLMs, DLMs, MLMs, HLMs, RAMs, MIMs, PLMs, CYP1A1 and CYP3A5 were calculated using P4, P4, P4, P4, P2, P2, P4, P4 and P4 data in oxidative metabolism, respectively. In the glucuronidation reaction, the kinetic parameter values in RLMs, MLMs, HLMs, RAMs and PLMs were calculated using P5, P6, P6, P6 and P5 data, respectively.

[1] = as above; format: in vitro ADME; conditions: pH 7.4; MOMs (mouse liver microsomes); P450-catalyzed oxidation; P2 formation; Vmax/Km
Description: as §1, §2, §3

RAMs = assay: Enzyme kinetics of toddalolactone metabolism in rabbit liver microsomes (oxidative metabolism and glucuronidation); format: in vitro ADME; conditions: RAMs; for V max: toddalolactone 1–200 μM
Description: as §1
(§4) In the UGT reaction system, liver microsomes were incubated in 200 μL of the reaction system containing 4 mM UDPGA, 5 mM MgCl2, 20 µg/mL alamethicin, and 50 mM Tris-HCl buffer (pH 7.4). After pre-incubation at 37 °C for 3 min, UDPGA was added to the mixture to initiate the reactions. The mixtures were incubated at 37 °C for 60 min, followed by the addition of 200 μL of cold methanol to terminate the reactions. After centrifugation at 18,000 g for 15 min, 10 μL of the supernatant was analyzed by HPLC.
(§5) The enzyme kinetics of toddalolactone in oxidative metabolism and glucuronidation were determined by incubating liver microsomes (0.2 mg/mL) or CYPs (15 nM) with different concentrations of toddalolactone (1–200 μM). The kinetic parameters including Km and Vmax were obtained by fitting the experimental data to the Michaelis–Menten equation (Equation (1)), biphasic kinetics equation (Equation (2)), or substrate inhibition equation (Equation (3)) (He et al. [2018]), and the results were graphically represented on Eadie–Hofstee plots. The in vitro intrinsic clearance (CLint) was calculated based on the Vmax/Km ratio. Metabolites were quantified using the standard curve for toddalolactone because of the absence of metabolite standards. All incubations were repeated in three independent experiments. Kinetic constants were expressed with mean ± SD: (1) V=Vmax×[S]/Km+[S] (2) V=Vmax1×[S]/Ks1+[S]+Vmax2×[S]/Ks2+[S] (3) V=Vmax×[S]/Ks+[S]+[S]^2/Ksi where v is the rate of reaction, Vmax is the estimated maximum velocity, [S] is the substrate concentration, and Km is the affinity constant of the substrate; Vmax1 and Vmax2 represent the estimated maximum velocity of the two metabolic phases; Ks1 and Ks2 represent the affinity constants for two metabolic phases; Ks and Ksi are the substrate affinity and inhibition constants, respectively.
(§6) The enzyme kinetics in oxidative metabolism and glucuronidation of toddalolactone were studied, and preliminary experiments were performed to ensure that metabolites were formed in the linear range of both reaction time and microsomal protein concentration. The metabolite with the largest peak area was used to calculate the kinetic parameter values (Km, Vmax and CLint). Based on the results of toddalolactone metabolism in different species, the kinetic parameter values in RLMs, DLMs, MLMs, HLMs, RAMs, MIMs, PLMs, CYP1A1 and CYP3A5 were calculated using P4, P4, P4, P4, P2, P2, P4, P4 and P4 data in oxidative metabolism, respectively. In the glucuronidation reaction, the kinetic parameter values in RLMs, MLMs, HLMs, RAMs and PLMs were calculated using P5, P6, P6, P6 and P5 data, respectively.

[2] = as above; format: in vitro ADME; conditions: rabbit, liver microsomes, pH 7.4, RAMs, Vmax/Km
Description: as §1, §4, §5, §6

DLMs = assay: Enzyme kinetics of toddalolactone metabolism in dog liver microsomes (oxidative metabolism); format: in vitro ADME, beagle dog; conditions: P450-catalyzed oxidation, P4 formation
Description: as §1, §2, §3

[3] = as above; format: in vitro ADME, beagle dog; conditions: beagle, dog, liver microsomes, pH 7.4; DLMs; P450-catalyzed oxidation; P4 formation; Vmax/Km
Description: as §1, §2, §3

[4] = P450-catalyzed oxidation, P2 formation
[5] = glucuronide metabolism, P6 formation

Q: Which “CLH versus hepatic blood flow (QH)” value (HLMs; HLMs) does the source give for `COc1cc2oc(=O)ccc2c(OC)c1C[C@@H](O)C(C)(C)O` [toddalolactone] here?
A: 8.68%

Q: What about the “clearance class according to predicted CLH” value (HLMs; humans) of the same compound?
A: low-clearance (low-clearance drugs (<30% liver blood flow))

Q: What about the “in vivo hepatic clearance (CLH)” value (HLMs; humans, predicted from kinetic parameters of P1–P6, fu set to 1) of the same compound?
A: 5.25 mL/(min/kg body weight)

Q: What about the K m (MIMs) of the same compound?
A: 146.32 ± 26.62 µM

Q: And the V max (MIMs; toddalolactone 1–200 μM)?
A: 235.91 ± 22.75 pmol/min/mg protein

Q: What about the microsomal CLint [1] of the same compound?
A: 1.61 µL/min/mg

Q: What about the K m (RAMs; [4]) of the same compound?
A: 76.46 ± 16.02 µM

Q: What about the V max (RAMs; [4]) of the same compound?
A: 20.03 ± 1.72 pmol/min/mg protein

Q: And the K m (RAMs; [5])?
A: 91.46 ± 28.22 µM

Q: What about the V max (RAMs; [5]) of the same compound?
A: 11.98 ± 2.19 pmol/min/mg protein

Q: What about the microsomal CLint [2, 4] of the same compound?
A: 0.26 µL/min/mg

Q: What about the microsomal CLint [2, 5] of the same compound?
A: 0.12 µL/min/mg

Q: What about the K m (DLMs) of the same compound?
A: 148.93 ± 38.37 µM

Q: And the V max (DLMs; toddalolactone 1–200 μM)?
A: 29.76 ± 7.27 pmol/min/mg protein

Q: And the microsomal CLint [3]?
A: 0.19 µL/min/mg
